According to ChEMBL document CHEMBL6078671, “Synthesis of aromatic glycoconjugates as anti-fungal agents against Candida spp. and assessment of their covalent crosslinking capabilities” (2025):
Values after ≈ are worked out from the molar mass of the structure shown.

How the values were obtained:
Format in all cases: functional
Candida albicans = test: Fungicidal activity against Candida albicans ATCC 10231 incubated for 24 hrs followed by replacement of medium without compound measured after 48 hrs
[1] = system: Meyerozyma guilliermondii; test: Fungicidal activity against Candida guilliermondii C94 incubated for 24 hrs followed by replacement of medium without compound measured after 48 hrs
Nakaseomyces glabratus = test: Fungicidal activity against Candida glabrata ATCC 90030 incubated for 24 hrs followed by replacement of medium without compound measured after 48 hrs
Clavispora lusitaniae = test: Fungicidal activity against Candida lusitaniae C18 incubated for 24 hrs followed by replacement of medium without compound measured after 48 hrs
Candida parapsilosis = test: Fungicidal activity against Candida parapsilosis ATCC 22019 incubated for 24 hrs followed by replacement of medium without compound measured after 48 hrs; conditions: Lodderomyces parapsilosis
[Candida] auris = Fungicidal activity against Candida auris ATCC CMYA-5001 incubated for 24 hrs followed by replacement of medium without compound measured after 48 hrs; conditions: Candidozyma auris

| SMILES | MFC (Candida albicans) | MFC [1] | MFC (Nakaseomyces glabratus) | MFC (Clavispora lusitaniae) | MFC (Candida parapsilosis) | MFC ([Candida] auris) |
| --- | --- | --- | --- | --- | --- | --- |
| C=CC(=O)Nc1cc(C(=O)NCc2cn([C@H]3O[C@H](CO)[C@@H](O)[C@H](O)[C@@H]3O)nn2)cc(C(=O)NCc2cn([C@H]3O[C@H](CO)[C@@H](O)[C@H](O)[C@@H]3O)nn2)c1 | > 10000 µg/mL | > 10000 µg/mL | > 10000 µg/mL | > 10000 µg/mL | > 10000 µg/mL | – |
| C=CC(=O)Nc1cc(C(=O)NCc2cn([C@H]3O[C@@H](C)[C@@H](O)[C@@H](O)[C@@H]3O)nn2)cc(C(=O)NCc2cn([C@H]3O[C@@H](C)[C@@H](O)[C@H](O)[C@@H]3O)nn2)c1 | > 10000 µg/mL | > 10000 µg/mL | > 10000 µg/mL | > 10000 µg/mL | > 10000 µg/mL | > 10000 µg/mL |
| CCC(=O)Nc1cc(C(=O)NCc2cn([C@@H]3O[C@H](CO)[C@H](O)[C@H](O)[C@H]3O)nn2)cc(C(=O)NCc2cn([C@@H]3O[C@H](CO)[C@H](O)[C@@H](O)[C@@H]3O)nn2)c1 | – | 10000 µg/mL (≈ 13.9 mM) | 10000 µg/mL (≈ 13.9 mM) | – | – | – |
| C=CS(=O)(=O)Nc1cc(C(=O)NCc2cn([C@H]3O[C@@H](C)[C@@H](O)[C@@H](O)[C@@H]3O)nn2)cc(C(=O)NCc2cn([C@H]3O[C@@H](C)[C@@H](O)[C@H](O)[C@@H]3O)nn2)c1 | > 10000 µg/mL | > 10000 µg/mL | > 10000 µg/mL | > 10000 µg/mL | > 10000 µg/mL | > 10000 µg/mL |
| C=CS(=O)(=O)Nc1cc(C(=O)NCc2cn([C@@H]3O[C@H](CO)[C@H](O)[C@H](O)[C@H]3O)nn2)cc(C(=O)NCc2cn([C@@H]3O[C@H](CO)[C@H](O)[C@@H](O)[C@@H]3O)nn2)c1 | > 10000 µg/mL | 10000 µg/mL (≈ 13.2 mM) | 10000 µg/mL (≈ 13.2 mM) | > 10000 µg/mL | > 10000 µg/mL | 10000 µg/mL (≈ 13.2 mM) |
